One data set concerns the target cGMP PDE5 (UniProt O76074). Kind of data set: Phosphodiesterase (PDE) inhibitory activity: in vitro inhibition of cGMP PDE5 (batch method or scintillation proximity assay). To be noted: in vitro activity as inhibitors of cGMP PDE5. (In general: In a scintillation proximity assay essentially only radioactivity close to the scintillant gives light.)
Experimental: Phosphodiesterases 7-11 were generated from full length human recombinant clones transfected into SF9 cells.
In summary, the effect of PDE inhibitors was investigated by assaying a fixed amount of enzyme in the presence of varying inhibitor concentrations and low substrate, (cGMP or cAMP in a 3:1 ratio unlabelled to [^3H]-labeled at a conc ˜1/3 Km) such that IC50≅Ki. The final assay volume was made up to 100 μl with assay buffer [20 mM Tris-HCl pH 7.4, 5 mM MgCl2, 1 mg/ml bovine serum albumin].
By IC50 is commonly meant the concentration at which inhibition is half-maximal. High values mean weaker potency, low ones greater potency. Turning to `CCCOc1ncc(N[C@@H](C)C(=O)O)cc1-c1nc2c(CCC)nn(C)c2c(=O)[nH]1` [Example 84, N-[5-(1-Methyl-7-oxo-3-propyl-6,7-dihydro-1H-pyrazolo[4,3-d]pyrimidin-5-yl)-6-propoxy-3-pyridinyl]alanine], the IC50 was determined as 7.5 nM.
`CCCCOc1ncc(C(C)=O)cc1-c1nc2c(CC)n(CCOC)nc2c(=O)[nH]1` [Example 16, 5-(5-Acetyl-2-butoxy-3-pyridinyl)-3-ethyl-2-(2-methoxyethyl)-2,6-dihydro-7H-pyrazolo[4,3-d]pyrimidin-7-one] displayed a 50% inhibitory concentration (IC50) of 6.55 nM.
The same measure, in the same setting: under `CCCOc1ncc(N2CCN(S(=O)(=O)c3ccc(C)cc3)CC2)cc1-c1nc2c(CCC)nn(C)c2c(=O)[nH]1` [Example 81, 1-Methyl-5-(5-{4-[(4-methylphenyl)sulfonyl]-1-piperazinyl}-2-propoxy-3-pyridinyl)-3-propyl-1,6-dihydro-7H-pyrazolo[4,3-d]pyrimidin-7-one] stands 2 nM; under `CCCOc1ncc(NCC(=O)O)cc1-c1nc2c(CCC)nn(C)c2c(=O)[nH]1` [Example 75, {[5-(1-Methyl-7-oxo-3-propyl-6,7-dihydro-1H-pyrazolo[4,3-d]pyrimidin-5-yl)-6-propoxy-3-pyridinyl]amino}acetic Acid], 5 nM.

System in the next data set: not given
Assay: not given
Conditions: not given
Usually melting point stands for the temperature, or range, at which the solid turns liquid. Regarding `CCCOc1ncc(I)cc1-c1nc2c(CC)nn(CCN3CCOCC3)c2c(=O)[nH]1` [Example 95, 3-Ethyl-5-(5-iodo-2-propoxy-3-pyridinyl)-1-[2-(4-morpholinyl)ethyl]-1,6-dihydro-7H-pyrazolo[4,3-d]pyrimidin-7-one], the melting point lay in the range of 175 to 177 °C.
On to `CCc1c2nc(-c3cc(C(C)=O)cnc3OCC(C)C)[nH]c(=O)c2nn1C1CCN(C)CC1` [Example 135, 5-(5-Acetyl-2-isobutoxy-3-pyridinyl)-3-ethyl-2-(1-methyl-4-piperidinyl)-2,6-dihydro-7H-pyrazolo[4,3-d]pyrimidin-7-one], for which the melting point lay in the range of 195 to 196 °C.
As for `CCCOc1ncc(C(C)=O)cc1-c1nc2c(CC)n(C3CN(C(C)C)C3)nc2c(=O)[nH]1` [Example 124, 5-(5-Acetyl-2-propoxy-3-pyridinyl)-3-ethyl-2-(1-isopropyl-3-azetidinyl)-2,6-dihydro-7H-pyrazolo[4,3-d]pyrimidin-7-one], the melting point lay within 162.8 to 163.6 °C.
As for `CCCOc1ncc(N(C)C)cc1-c1nc2c(CCC)nn(C)c2c(=O)[nH]1` [Example 93, 5-[5-(Dimethylamino)-2-propoxy-3-pyridinyl]-1-methyl-3-propyl-1,6-dihydro-7H-pyrazolo[4,3-d]pyrimidin-7-one], the melting point fell in the range of 162 to 162.5 °C.
On to `CCCOc1ncc(C#C[Si](C)(C)C)cc1-c1nc2c(CC)nn(CCN3CCOCC3)c2c(=O)[nH]1`, for which the melting point was in the range of 132 to 134 °C.
`CCCOc1ncc(C(C)=O)cc1-c1nc2c(CC)n(C3CN(C(C)CC)C3)nc2c(=O)[nH]1` (centres unmarked) [Example 123, 5-(5-Acetyl-2-propoxy-3-pyridinyl)-2-(1-sec-butyl-3-azetidinyl)-3-ethyl-2,6-dihydro-7H-pyrazolo[4,3-d]pyrimidin-7-one] showed a melting point of 176.5 to 177.7 °C.
In turn, `CCCOc1ncc(C(C)=O)cc1-c1nc2c(CC)n(C3CCN(C)CC3)nc2c(=O)[nH]1` [Example 125, 5-(5-Acetyl-2-propoxy-3-pyridinyl)-3-ethyl-2-(1-methyl-4-piperidinyl)-2,6-dihydro-7H-pyrazolo[4,3-d]pyrimidin-7-one] had a melting point of 219 to 220 °C.
`CCCc1nn(C)c2c(=O)[nH]c(-c3cc(N)cnc3OC3CCC3)nc12` [Example 90, 5-[5-Amino-2-(cyclobutyloxy)-3-pyridinyl]-1-methyl-3-propyl-1,6-dihydro-7H-pyrazolo[4,3-d]pyrimidin-7-one] returned a melting point of 185 to 185.5 °C.
The compound `CCCOc1ncc(NC(=O)N(C)C)cc1-c1nc2c(CCC)nn(C)c2c(=O)[nH]1` [Example 91, N′-[6-(Propoxy)-5-(1-methyl-7-oxo-3-propyl-6,7-dihydro-1H-pyrazolo[4,3-d]pyrimidin-5-yl)-3-pyridinyl]-N,N-dimethylurea] registered a melting point of 219 to 220 °C.
`CCCOC(=O)Nc1cnc(OCCC)c(-c2nc3c(CCC)nn(C)c3c(=O)[nH]2)c1` [Example 94, Propyl 5-(1-Methyl-7-oxo-3-propyl-6,7-dihydro-1H-pyrazolo[4,3-d]pyrimidin-5-yl)-6-propoxy-3-pyridinylcarbamate] came in with a melting point of 210 to 211 °C.
On to `CCCOc1ncc(NC(C)=O)cc1-c1nc2c(CCC)nn(C)c2c(=O)[nH]1` [Example 92, N-[6-(Propoxy)-5-(1-methyl-7-oxo-3-propyl-6,7-dihydro-1H-pyrazolo[4,3-d]pyrimidin-5-yl)-3-pyridinyl]acetamide], for which the melting point was in the range of 252 to 253 °C.
`CCCOc1ncc(C(C)=O)cc1-c1nc2c(CC)n(C3CNC3)nc2c(=O)[nH]1` [Example 117, 5-(5-Acetyl-2-propoxy-3-pyridinyl)-2-(3-azetidinyl)-3-ethyl-2,6-dihydro-7H-pyrazolo[4,3-d]pyrimidin-7-one] showed a melting point of 128.5 to 130 °C.
`CCCc1nn(C)c2c(=O)[nH]c(-c3cc(NC(C)=O)cnc3OC3CCC3)nc12` [Example 89, N-[6-(Cyclobutyloxy)-5-(1-methyl-7-oxo-3-propyl-6,7-dihydro-1H-pyrazolo[4,3-d]pyrimidin-5-yl)-3-pyridinyl]acetamide] displayed a melting point of 279 to 281 °C.
On the same count and under the same terms, under `C#Cc1cnc(OCCC)c(-c2nc3c(CC)nn(CCN4CCOCC4)c3c(=O)[nH]2)c1` [Example 107, 3-Ethyl-5-(5-ethynyl-2-propoxy-3-pyridinyl)-1-[2-(4-morpholinyl)ethyl]-1,6-dihydro-7H-pyrazolo[4,3-d]pyrimidin-7-one] stands 137 to 139 °C; under `CCOc1ncc(C(C)=O)cc1-c1nc2c(CC)nn(Cc3nccn3C)c2c(=O)[nH]1` [Example 138, 5-(5-Acetyl-2-ethoxy-3-pyridinyl)-3-ethyl-1-[(1-methyl-1H-imidazol-2-yl)methyl]-1,6-dihydro-7H -pyrazolo[4,3-d]pyrimidin-7-one], 217.9 to 218.7 °C.
On to `CCCOc1ncc(C(C)=O)cc1-c1nc2c(CC)n(C3CCN(C(C)=O)CC3)nc2c(=O)[nH]1` [Example 122, 2-(1-acetyl-4-piperidinyl)-5-(5-acetyl-2-propoxy-3-pyridinyl)-3-ethyl-2,6-dihydro-7H-pyrazolo[4,3-d]pyrimidin-7-one], for which the melting point was in the range of 213 to 214 °C.
`CCCOc1ncc(I)cc1-c1nc2c(CC)n(Cc3ccccn3)nc2c(=O)[nH]1` [Example 98, 5-(2-Propoxy-5-iodo-3-pyridinyl)-3-ethyl-2-(2-pyridinylmethyl)-2,6-dihydro-7H-pyrazolo[4,3-d]pyrimidin-7-one] showed a melting point of 228.9 to 233.8 °C.
Consider `CCCOc1ncc(C(C)=O)cc1-c1nc2c(CC)n(C3CN(C)C3)nc2c(=O)[nH]1` [Example 120, 5-(5-Acetyl-2-propoxy-3-pyridinyl)-3-ethyl-2-(1-methyl-3-azetidinyl)-2,6-dihydro-7H-pyrazolo[4,3-d]pyrimidin-7-one], for which the melting point was 175.9 to 177 °C.
In turn, `C#Cc1cnc(OCCC)c(-c2nc3c(CC)n(C4CCN(C(=O)OC(C)(C)C)CC4)nc3c(=O)[nH]2)c1` [Example 112, tert-Butyl 4-[3-Ethyl-5-(5-ethynyl-2-propoxy-3-pyridinyl)-7-oxo-6,7-dihydro-2H-pyrazolo[4,3-d]pyrimidin-2-yl]-1-piperidinecarboxylate] displayed a melting point of 221 °C.
The same measure, in the same setting: the value for `CCCOc1ncc(C(C)=O)cc1-c1nc2c(CC)nn(CCN3CCOCC3)c2c(=O)[nH]1` [Example 113, 5-(5-Acetyl-2-propoxy-3-pyridinyl)-3-ethyl-1-[2-(4-morpholinyl)ethyl]-1,6-dihydro-7H-pyrazolo[4,3-d]pyrimidin-7-one] was 140 to 143 °C; that for `CCCCOc1ncc(C(C)=O)cc1-c1nc2c(CC)n(C3CCN(C(C)=O)CC3)nc2c(=O)[nH]1` [Example 131, 5-(5-Acetyl-2-butoxy-3-pyridinyl)-2-(1-acetyl-4-piperidinyl)-3-ethyl-2,6-dihydro-7H-pyrazolo[4,3-d]pyrimidin-7-one] was 156 to 157 °C.
For the compound `CCCOc1ncc(C#N)cc1-c1nc2c(CCC)nn(C)c2c(=O)[nH]1` [Example 70, 5-(1-Methyl-7-oxo-3-propyl-6,7-dihydro-1-pyrazolo[4,3-d]pyrimidin-5-yl)-6-propoxynicotinonitrile], the melting point fell in the range of 174 to 176 °C.
The same measure, in the same setting: under `CCOc1ncc(C(C)=O)cc1-c1nc2c(CC)n(CC3CC3)nc2c(=O)[nH]1` [Example 128] stands 200 to 201 °C; under `CCCCOc1ncc(-c2ccco2)cc1-c1nc2c(CC)n(CCOC)nc2c(=O)[nH]1` [Example 12, 5-[2-Butoxy-5-(2-furyl)-3-pyridinyl]-3-ethyl-2-(2-methoxyethyl)-2,6-dihydro-7H-pyrazolo[4,3-d]pyrimidin-7-one], 154 to 155 °C.
Consider `CCCc1nn(C)c2c(=O)[nH]c(-c3cc([N+](=O)[O-])cnc3OC3CCC3)nc12` [Example 88, 5-[2-(Cyclobutyloxy)-5-nitro-3-pyridinyl]-1-methyl-3-propyl-1,6-dihydro-7H-pyrazolo[4,3-d]pyrimidin-7-one], for which the melting point is 212 to 214 °C.
For the compound `CCCOc1ncc(C(C)=O)cc1-c1nc2c(CC)n(C3CN(C(C)=O)C3)nc2c(=O)[nH]1` [Example 121, 2-(1-Acetyl-3-azetidinyl)-5-(5-acetyl-2-propoxy-3-pyridinyl)-3-ethyl-2,6-dihydro-7H-pyrazolo[4,3-d]pyrimidin-7-one], the melting point lay within 229.3 to 230.1 °C.
The compound `CCCCOc1ncc(C(C)=O)cc1-c1nc2c(CC)n(CC3CC3)nc2c(=O)[nH]1` [Example 127] gave a melting point of 184 to 185 °C.
Consider `CCCCOc1ncc(C(C)=O)cc1-c1nc2c(CC)n(C3CCN(C(=O)OC(C)(C)C)CC3)nc2c(=O)[nH]1` [Example 129, tert-Butyl 4-[5-(5-Acetyl-2-butoxy-3-pyridinyl)-3-ethyl-7-oxo-6,7-dihydro-2H-pyrazolo[4,3-d]pyrimidin-2-yl]-1-piperidinecarboxylate], for which the melting point fell in the range of 194 to 195 °C.
